From patent publication US8653091B2, “Pyrid-2yl fused heterocyclic compounds, and compositions and uses thereof” (Evotec AG, priority 2007, dated 2014)

Tests used:
P2X2/3 = P2X2/3 (Homo sapiens (Human), UniProt P56373+Q9UBL9); test: Calcium uptake assay (P2X antagonist assay), P2X2/3; format: cell-based; conditions: inhibition of agonist-induced calcium influx
Source text: (§1) Human P2X3 (Accession no. NM_002559), P2X2 (Accession no. NM_170682) and Rat P2X3 (Accession no. NM_031075) and P2X2 (Accession no. NM_053656) are cloned into a mammalian expression vector (e.g., pcDNA5/TO or pcDNA3 Invitrogen). The human P2X2/3 chimera clone is created as described by Neelands et al, and then cloned into an expression vector as above. Receptors are expressed in cells (e.g., HEK293 or 1321N1 (obtained from the ECACC)) via transient transfection using standard lipid mediated transfection, or by creation of stable transfectants for each receptor. For expression of the P2X2/3 heteromeric receptor, the P2X3 expression vector is stably transfected into a cell line already stably expressing P2X2. P2X2/3 heteromer function is isolated using pharmacological methods. Cell lines are maintained in DMEM+5% Glutamax, the appropriate level of selective antibiotic, and 10% heat inactivated FBS.
(§2) Functional activity of compounds at the P2X receptor is determined by measuring their ability to inhibit agonist-induced calcium influx. Compounds are tested for antagonist activity against the P2X2/3 chimera, the P2X3 homomer, or the P2X2/3 heteromer. At the start of each screening day, the agonist EC50 is determined. Compound % inhibition or IC50s are subsequently determined using a pre-determined agonist concentration (EC50-90 depending on cell line) as a stimulus. The agonists used are αβMeATP, ATP, or other ATP analogs. Compounds may be tested at concentrations ranging from 1 μM to 10 μM.
(§3) To test for antagonist activity, cells expressing the appropriate receptor are seeded onto 96 or 384 well plates 18-24 hours prior to assay. On the day of the assay, cells are loaded with calcium-sensitive fluorescent dye (e.g., Fluo-4 no wash reagent-Invitrogen cat#F36206, or the BD™ PBX Calcium Assay Kit—BD cat#640175) in Hank's Buffered Salt Solution (HESS) with up to 10 mM supplemental CaCl2. Plates are incubated at 37° C. and then equilibrated at room temperature. Antagonism of agonist-induced calcium influx is measured using a fluorescent imaging plate reader (e.g. FLIPR^TETRA, Molecular Devices, Sunnyvale, Calif.). The assay comprises two stages: a pre-treatment phase followed by a treatment phase. Compounds may be tested as follows: For the pre-treatment phase, 50 μL of 3× concentration of test compound in HBSS is added to cells containing 100 μL of dye loading media to achieve a final concentration of 1× test compound. For the treatment phase, at a set interval after pre-treatment (1-30 minutes), 50 μL of 1× test compound plus […] solution is added, resulting in a final concentration of 1× compound and 1× agonist. Fluorescence is measured at 0.1-3 second intervals—with an excitation wavelength of 494 nm and an emission wavelength of 515 nm. Responses are measured as (peak fluorescence after agonist addition) minus (baseline fluorescence prior to treatment). Percent inhibition is calculated as follows: […]
(§4) IC50 values are determined by analyzing dose response data in a 4 parameter logistic fit using GraphPad Prizm.

P2X3 = P2X3 (Homo sapiens (Human), UniProt P56373); test: Calcium uptake assay (P2X antagonist assay), P2X3; format: cell-based; conditions: inhibition of agonist-induced calcium influx
P2X3, sequence (P56373 whole entry): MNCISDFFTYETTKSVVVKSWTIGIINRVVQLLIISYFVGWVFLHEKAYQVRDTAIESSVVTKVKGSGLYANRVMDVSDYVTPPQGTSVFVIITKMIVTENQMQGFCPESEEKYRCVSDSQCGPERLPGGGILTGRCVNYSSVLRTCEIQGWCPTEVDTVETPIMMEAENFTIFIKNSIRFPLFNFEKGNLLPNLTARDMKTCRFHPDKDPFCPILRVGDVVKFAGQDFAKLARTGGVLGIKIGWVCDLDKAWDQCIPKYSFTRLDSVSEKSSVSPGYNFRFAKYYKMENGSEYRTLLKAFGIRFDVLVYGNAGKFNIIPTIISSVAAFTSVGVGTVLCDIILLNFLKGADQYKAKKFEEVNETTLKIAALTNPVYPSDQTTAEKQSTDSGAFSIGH
Source text: as §1, §2, §3, §4

P2X2/3, sequence (Q9UBL9 whole entry): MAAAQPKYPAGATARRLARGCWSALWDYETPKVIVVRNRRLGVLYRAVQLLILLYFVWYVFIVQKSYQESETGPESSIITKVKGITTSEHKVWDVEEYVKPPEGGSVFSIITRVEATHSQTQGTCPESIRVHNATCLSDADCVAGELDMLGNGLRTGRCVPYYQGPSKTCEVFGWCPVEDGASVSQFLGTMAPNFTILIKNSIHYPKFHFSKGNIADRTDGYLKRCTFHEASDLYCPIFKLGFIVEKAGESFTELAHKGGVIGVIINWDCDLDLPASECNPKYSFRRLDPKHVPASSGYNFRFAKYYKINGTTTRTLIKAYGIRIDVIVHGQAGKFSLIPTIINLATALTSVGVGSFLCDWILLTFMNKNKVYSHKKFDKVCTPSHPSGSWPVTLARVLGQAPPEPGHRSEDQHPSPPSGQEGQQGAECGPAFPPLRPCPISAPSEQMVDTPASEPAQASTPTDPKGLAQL
P2X2/3, sequence (P56373 whole entry): as the sequence (P56373 whole entry) above

SMILES	IC50 (P2X2/3) [nM]	IC50 (P2X3) [nM]
Cc1ccc(N2CCc3ncnc(NC(C)c4cccc(F)c4)c3C2)nc1 (centres unmarked) [Compound 2, [1-(3-Fluoro-phenyl)-ethyl]-[6-(5-methyl-pyridin-2-yl)-5,6,7,8-tetrahydro-pyrido[4,3-d]pyrimidin-4-yl]-amine]	2430	56
Cc1ccc(N2CCc3ncnc(NC(C)c4ccc(S(C)(=O)=O)cc4)c3C2)nc1 (centres unmarked) [Compound 5, [1-(4-Methanesulfonyl-phenyl)-ethyl]-[6-(5-methyl-pyridin-2-yl)-5,6,7,8-tetrahydro-pyrido[4,3-d]pyrimidin-4-yl]-amine]	4250	128
Cc1ccc(N2CCc3ncnc(N[C@H](C)c4ccc(Cl)cc4)c3C2)nc1 [Compound 7, [(R)-1-(4-Chloro-phenyl)-ethyl]-[6-(5-methyl-pyridin-2-yl)-5,6,7,8-tetrahydro-pyrido[4,3-d]pyrimidin-4-yl]-amine]	1910	48
Cc1ccc(N2CCc3ncnc(N[C@H](C)c4ccccc4)c3C2)nc1 [Compound 8, [6-(5-Methyl-pyridin-2-yl)-5,6,7,8-tetrahydro-pyrido[4,3-d]pyrimidin-4-yl]-((R)-1-phenyl-ethyl)-amine]	2540	73
Cc1ccc(N2CCc3ncnc(NC(C)c4ccccn4)c3C2)nc1 (centres unmarked) [Compound 10, [6-(5-Methyl-pyridin-2-yl)-5,6,7,8-tetrahydro-pyrido[4,3-d]pyrimidin-4-yl]-(1-pyridin-2-yl-ethyl)-amine]	3970	123
Cc1ccc(N2CCc3ncnc(NC(C)c4cccnc4)c3C2)nc1 (centres unmarked) [Compound 11, [6-(5-Methyl-pyridin-2-yl)-5,6,7,8-tetrahydro-pyrido[4,3-d]pyrimidin-4-yl]-(1-pyridin-3-yl-ethyl)-amine]	2740	63
Cc1ccc(N2CCc3ncnc(NC(C)c4ccccc4F)c3C2)nc1 (centres unmarked) [Compound 12, [1-(2-Fluoro-phenyl)-ethyl]-[6-(5-methyl-pyridin-2-yl)-5,6,7,8-tetrahydro-pyrido[4,3-d]pyrimidin-4-yl]-amine]	4620	88
Cc1ccc(N2CCc3ncnc(NC(C)c4cc(F)cc(F)c4)c3C2)nc1 (centres unmarked) [Compound 17, [1-(3,5-Difluoro-phenyl)-ethyl]-[6-(5-methyl-pyridin-2-yl)-5,6,7,8-tetrahydro-pyrido[4,3-d]pyrimidin-4-yl]-amine]	803	52
Cc1ccc(N2CCc3ncnc(NC(C)c4ccc(F)cc4F)c3C2)nc1 (centres unmarked) [Compound 18, [1-(2,4-Difluoro-phenyl)-ethyl]-[6-(5-methyl-pyridin-2-yl)-5,6,7,8-tetrahydro-pyrido[4,3-d]pyrimidin-4-yl]-amine]	3070	50
COc1ccc(C(C)Nc2ncnc3c2CN(c2ccc(C)cn2)CC3)cc1F (centres unmarked) [Compound 21, [1-(3-Fluoro-4-methoxy-phenyl)-ethyl]-[6-(5-methyl-pyridin-2-yl)-5,6,7,8-tetrahydro-pyrido[4,3-d]pyrimidin-4-yl]-amine]	1060	80
Cc1ccc(N2CCc3ncnc(NC(CCO)c4ccccc4)c3C2)nc1 (centres unmarked) [Compound 32, 3-[6-(5-Methyl-pyridin-2-yl)-5,6,7,8-tetrahydro-pyrido[4,3-d]pyrimidin-4-ylamino]-3-phenyl-propan-1-ol]	3880	143
Cc1ccc([C@@H](C)Nc2ncnc3c2CN(c2ccc(C)cn2)CC3)cc1 [Compound 34]	1460	47
Cc1ccc(N2CCc3ncnc(NC(C)c4ccc(Cl)c(F)c4)c3C2)nc1 (centres unmarked) [Compound 39, [1-(4-Chloro-3-fluoro-phenyl)-ethyl]-[6-(5-methyl-pyridin-2-yl)-5,6,7,8-tetrahydro-pyrido[4,3-d]pyrimidin-4-yl]-amine]	1420	43
CC[C@H](Nc1ncnc2c1CN(c1ccc(C)cn1)CC2)c1ccccc1 [Compound 45, [6-(5-Methyl-pyridin-2-yl)-5,6,7,8-tetrahydro-pyrido[4,3-d]pyrimidin-4-yl]-((S)-1-phenyl-propyl)-amine]		> 10000
COc1cccc([C@@H](C)Nc2ncnc3c2CN(c2ccc(C)cn2)CC3)c1 [Compound 47, [(R)-1-(3-Methoxy-phenyl)-ethyl]-[6-(5-methyl-pyridin-2-yl)-5,6,7,8-tetrahydro-pyrido[4,3-d]pyrimidin-4-yl]-amine]	705	21
Cc1ccc(N2CCc3ncnc(N[C@H](C)c4ccc(F)cc4)c3C2)nc1 [Compound 49, [(R)-1-(4-Fluoro-phenyl)-ethyl]-[6-(5-methyl-pyridin-2-yl)-5,6,7,8-tetrahydro-pyrido[4,3-d]pyrimidin-4-yl]-amine]	1220	19
Cc1ccc(N2CCc3ncnc(N[C@H](C)c4ccc(C(F)(F)F)nc4)c3C2)nc1 [Compound 50, (R)-6-(5-Methylpyridin-2-yl)-N-(1-(6-(trifluoromethyl)pyridin-3-yl)ethyl)-5,6,7,8-tetrahydropyrido[4,3-d]pyrimidin-4-amine]	279	15
C[C@H](Nc1ncnc2c1CN(c1ccc(Cl)cn1)CC2)c1ccc(C(F)(F)F)nc1 [Compound 51, (S)-6-(5-Chloropyridin-2-yl)-N-(1-(6-(trifluoromethyl)pyridin-3-yl)ethyl)-5,6,7,8-tetrahydropyrido[4,3-d]pyrimidin-4-amine]		> 10000
C[C@@H](Nc1ncnc2c1CN(c1ccc(Cl)cn1)CC2)c1ccc(C(F)(F)F)nc1 [Compound 52, [6-(5-Chloro-pyridin-2-yl)-5,6,7,8-tetrahydro-pyrido[4,3-d]pyrimidin-4-yl]-[(R)-1-(6-trifluoromethyl-pyridin-3-yl)-ethyl]-amine]		33
FC(F)(F)c1ccc([C@H](Nc2ncnc3c2CN(c2ccc(Cl)cn2)CC3)C2CC2)cn1 [Compound 53, [6-(5-Chloro-pyridin-2-yl)-5,6,7,8-tetrahydro-pyrido[4,3-d]pyrimidin-4-yl]-[(R)-cyclopropyl-(6-trifluoromethyl-pyridin-3-yl)-methyl]-amine]		3560
FC(F)(F)c1ccc([C@@H](Nc2ncnc3c2CN(c2ccc(Cl)cn2)CC3)C2CC2)cn1 [Compound 54, [6-(5-Chloro-pyridin-2-yl)-5,6,7,8-tetrahydro-pyrido[4,3-d]pyrimidin-4-yl]-[(S)-cyclopropyl-(6-trifluoromethyl-pyridin-3-yl)-methyl]-amine]	> 10000	
Cc1ccc(N2CCc3ncnc(N[C@H](CO)c4ccc(C(F)(F)F)cc4)c3C2)nc1 [Compound 55, (S)-2-(6-(5-Methylpyridin-2-yl)-5,6,7,8-tetrahydropyrido[4,3-d]pyrimidin-4-ylamino)-2-(4-(trifluoromethyl)phenyl)ethanol]	3970	158
Cc1ccc(N2CCc3ncnc(NC(CCO)c4ccc(C(F)(F)F)nc4)c3C2)nc1 (centres unmarked) [Compound 56, 3-[6-(5-Methyl-pyridin-2-yl)-5,6,7,8-tetrahydro-pyrido[4,3-d]pyrimidin-4-ylamino]-3-(6-trifluoromethyl-pyridin-3-yl)-propan-1-ol]	522	67
COc1ccc([C@@H](CCO)Nc2ncnc3c2CN(c2ccc(Cl)cn2)CC3)cn1 [Compound 57, (R)-3-[6-(5-Chloro-pyridin-2-yl)-5,6,7,8-tetrahydro-pyrido[4,3-d]pyrimidin-4-ylamino]-3-(6-methoxy-pyridin-3-yl)-propan-1-ol]	318	103
COc1ccc([C@@H](CCO)Nc2ncnc3c2CN(c2ccc(C)cn2)CC3)cn1 [Compound 58, (R)-3-(6-Methoxy-pyridin-3-yl)-3-[6-(5-methyl-pyridin-2-yl)-5,6,7,8-tetrahydro-pyrido[4,3-d]pyrimidin-4-ylamino]-propan-1-ol]	83	29
COc1ccc([C@@H](CO)Nc2ncnc3c2CN(c2ccc(Cl)cn2)CC3)cn1 [Compound 59, (S)-2-[6-(5-Chloro-pyridin-2-yl)-5,6,7,8-tetrahydro-pyrido[4,3-d]pyrimidin-4-ylamino]-2-(6-methoxy-pyridin-3-yl)-ethanol]	276	90
